Data as given in patent US8168642B2, “Dihydropyrimidine compounds and their uses in preparation of medicaments for treating and preventing antiviral diseases” (Beijing Molecule Science and Technology Co., Ltd., priority 2006, dated 2012).

What was measured:
HBV DNA = assay: Antiviral activity: inhibition of HBV DNA in supernatant of HepG 2.2.15 cells (dot blot hybridization); type: cell-based; conditions: Hepatitis B virus, HepG2.2.15, 192 h, 8 days incubation, HB-specific DNA in supernatant, read-out: IC50 (inhibitory effect on HBV DNA)
Procedure: The antiviral effect of the compound of the present invention is determined according to the methods described by Sells, et al (M. A. Sells, M. L. Chen, G. Proc. Natl. Acad. Sci. 1987, 84, 1005-1009) and Korba, et al (B. E. Korba, J. L. Gerin Antiviral Research 1992, 19, 55-70).
(§1) The antiviral test was carried out in a 96-cell microtiter plate. The first column of the plate only contained a culture medium and HepG 2.2.15 cells, as a blank control.
(§2) First, a stock solution ([…]) of a test compound was dissolved in DMSO, and further diluted with a culture medium for growth of HepG 2.2.15 cells. Usually, the compound of the present invention was transferred by suction at a test concentration of 100 μg/ml (the first test concentration) to each cell of the second column of the microtiter plate, and then diluted with the culture medium for growth plus 2% fetal bovine serum (25 μL), by 2 times once, up to 2^10 times at the maximum.
(§3) Then, 225 μL of a suspension of HepG 2.2.15 cells in the culture medium for growth plus 2% fetal bovine serum (5×10^4 cells/ml) was added to each cell of the 96-cell microtiter plate.
(§4) The test mixture was incubated under the conditions of 37° C., 5% CO2 for 4 days. Then, the supernatant was removed by suction, and to each cell 225 μL of a new-prepared culture medium for growth was added. Again, the compound of the present invention was added with a solution of 25 μL. The obtained mixture was further incubated for 4 days.
Thereafter, the supernatant was collected, and sucked in vacuum to a 96-cell dot blot chamber covered by nylon film (used in accordance with the instructions for use provided by the manufacturer).
Determination of Antiviral Activity
After the supernatant was transferred onto the nylon film of the dot blot device (see the contents hereinabove), the supernatant of HepG 2.2.15 cells was denaturated (1.5 M NaCl/0.5 M NaOH), neutralized (3 M NaCl/0.5 M Tris. HCl, pH 7.5) and washed (2×SSC). Then, the filter film was kept at 120° C. for 2-4 hours, whereby DNA was baked on the filter film.
Usually, viral DNA of HepG 2.2.15 cells treated on the nylon film was detected by using a non-radioactive digoxigenin labeled HB-specific DNA probe. Wherein, each time the probe was labeled with digoxigenin, purified and hybridized according to the directions for use given by the manufacturer.
Briefly, pre-hybridization and hybridization were conducted with 5×SSC, 1× blocking agent, 0.1% N-lauroyl sarcosine, 0.02% SDS and 100 μg sperm DNA of black carp. After pre-hybridization at 60° C. for 30 min, a specific hybridization (at 60° C. for 14 hr) was conducted with 20-40 ng/ml digoxigenin labeled denaturalized HBV specific DNA. Then, the film was washed, followed by HBV DNA detection with digoxigenin antibody.
The immunology detection of digoxigenin labeled DNA was conducted according to the directions for use given by the manufacturer.
Briefly speaking, the film was washed and pre-hybridized with a blocking agent (in accordance with the directions for use given by the manufacturer), and then hybridized with an anti-DIG antibody that had been previously coupled onto an alkaline phosphatase for 30 min. After washing, an alkaline phosphatase substrate CSPD was added, and cultured together with the filter for 5 min, and then wrapped in a plastic film, followed by further culturing at 37° C. for 15 min. The filter was exposed to X-ray, and the chemical luminous signal (culturing for 10 min to 2 hr according to the signal strength) of HB-specific DNA on the film was detected, whereby a half inhibitory concentration (IC50) was calculated.
The half inhibitory concentration (IC50) refers to the concentration of the compound of the present invention which reduces the HB-specific band by 50% as compared with the untreated sample.

HepG 2.2.15 cells = assay: Cytotoxicity in HepG 2.2.15 cells (cell morphology under microscope after 8 days, Reed&Muench); type: cell-based; conditions: pathological change of cells after 8 days
Procedure: as §1, §2, §3, §4
Prior to collection of the supernatant for determination of the antiviral effect, the change in cytotoxicity of HepG 2.2.15 cells was investigated by using optical microscopic technique or biochemical detection method (e.g., Alamar Blue staining or Trypan Blue staining).
Determination of Cytotoxicity
The substance-induced change in cytotoxicity in HepG 2.2.15 cells or in inhibition of the cells could be determined by using, e.g., optical microscopic technique, and expressed by the change of cell morphology. Such substance-induced changes, e.g., cell lysis, cavity formation or change in cell morphology, in HepG 2.2.15 cells were apparent as compared to the untreated cells.
Taking the observed pathological change of cells as index, the pathological change of cells was observed under microscope after 8 days, a complete destroy being indicated as 4; 75% being indicated as 3; 50% being indicated as 2; 25% being indicated as 1; and no pathological change being indicated as 0. The average extents of pathological change of cells and the inhibition percentages at various concentrations were calculated. According to Reed&Muench method, a half toxic concentration (TC50) and a maximum non-toxic concentration (TC0) were calculated.
TC50 refers to the concentration of the compound of the present invention when 50% of cells have a similar morphology to the corresponding cells as a control.

Structure (SMILES): CCOC(=O)C1=C(C)N(C(C)=O)C(c2csc(C)n2)=NC1c1cccc(C)c1 (centres unmarked)
- melting point: 113 to 114 °C

Structure (SMILES): CCOC(=O)C1=C(C)NC(c2nccn2C)=NC1c1ccc(F)cc1Cl (centres unmarked) [Example 49, ethyl 2-(N-methyl-1H-imidazol-2-yl)-4-(2-chloro-4-fluorophenyl)-6-methyl-1,4-dihydro-pyrimidin-5-carboxylate]
- melting point: 166 to 167 °C
- IC50 (HBV DNA): 270 nM
- TD50 (HepG 2.2.15 cells): 38.83 µM

Structure (SMILES): COC(=O)C1=C(C)NC(c2ncsc2Cl)=NC1c1ccc(F)cc1 (centres unmarked)
- melting point: 118 to 122 °C

Structure (SMILES): CCOC(=O)C1=C(C)NC(c2scnc2C)=NC1c1ccc(F)cc1Cl (centres unmarked) [Example 38, ethyl 2-(4-methylthiazol-5-yl)-4-(2-chloro-4-fluorophenyl)-6-methyl-1,4-dihydro-pyrimidin-5-carboxylate]
- melting point: 134 to 139 °C
- IC50 (HBV DNA): 2220 nM
- TD50 (HepG 2.2.15 cells): 54.33 µM

Structure (SMILES): CCOC(=O)C1=C(C)NC(c2cscn2)=NC1c1ccc(O)cc1 (centres unmarked)
- melting point: 213 to 216 °C

Structure (SMILES): CCOC(=O)C1=C(C)NC(c2cnc(N)s2)=NC1c1ccc(F)cc1Cl (centres unmarked) [Example 44, ethyl 2-(2-aminothiazol-5-yl)-4-(2-chloro-4-fluorophenyl)-6-methyl-1,4-dihydro-pyrimidin-5-carboxylate]
- melting point: 132 to 135 °C
- IC50 (HBV DNA): 2690 nM
- TD50 (HepG 2.2.15 cells): 22.56 µM

Structure (SMILES): COC(=O)C1=C(C)NC(c2csc(Cl)n2)=NC1c1ccc(F)cc1Cl (centres unmarked) [Example 34, methyl 2-(2-chlorothiazol-4-yl)-4-(2-chloro-4-fluorophenyl)-6-methyl-1,4-dihydro-pyrimidin-5-carboxylate]
- melting point: 160 to 162 °C
- IC50 (HBV DNA): 2080 nM
- TD50 (HepG 2.2.15 cells): 12.35 µM

Structure (SMILES): CCOC(=O)C1=C(C)NC(c2nccn2Cc2ccccc2)=NC1c1ccc(F)cc1Cl (centres unmarked)
- melting point: 114 to 117 °C

Structure (SMILES): CCOC(=O)C1=C(C)N(C(C)=O)C(c2csc(C)n2)=NC1c1ccccc1 (centres unmarked)
- melting point: 140 to 142 °C

Structure (SMILES): CCOC(=O)C1=C(C)NC(c2sc(C)nc2C)=NC1c1ccc(F)cc1Cl (centres unmarked) [Example 40, ethyl 2-(2,4-dimethylthiazol-5-yl)-4-(2-chloro-4-fluorophenyl)-6-methyl-1,4-dihydro-pyrimidin-5-carboxylate]
- melting point: 117 to 119 °C
- IC50 (HBV DNA): 2590 nM
- TD50 (HepG 2.2.15 cells): 157.42 µM

Structure (SMILES): CCOC(=O)C1=C(C)N(C(C)=O)C(c2csc(C)n2)=NC1c1ccc(OC)cc1 (centres unmarked)
- melting point: 138 to 140 °C

Structure (SMILES): CCOC(=O)C1=C(C)NC(c2cncs2)=NC1c1ccc(F)cc1Cl (centres unmarked) [Example 42, ethyl 2-(thiazol-5-yl)-4-(2-chloro-4-fluorophenyl)-6-methyl-1,4-dihydro-pyrimidin-5-carboxylate]
- melting point: 121 to 125 °C
- IC50 (HBV DNA): 3610 nM
- TD50 (HepG 2.2.15 cells): >32.90 µM

Structure (SMILES): CCOC(=O)C1=C(C)NC(c2csc(C)n2)=NC1c1ccc(F)cc1Cl (centres unmarked)
- melting point: 123 to 125 °C

Structure (SMILES): COC(=O)C1=C(C)NC(c2cnc(Cl)s2)=NC1c1ccc(F)cc1Cl (centres unmarked)
- melting point: > 230 °C

Structure (SMILES): CCOC(=O)C1=C(C)NC(c2cscn2)=NC1c1cccc(F)c1 (centres unmarked)
- melting point: 118 to 120 °C

Structure (SMILES): CCOC(=O)C1=C(C)N(C(C)=O)C(c2csc(C)n2)=NC1c1ccc(C)cc1 (centres unmarked)
- melting point: 187 to 188 °C

Structure (SMILES): CCOC(=O)C1=C(C)NC(c2cnc(C)s2)=NC1c1ccc(F)cc1Cl (centres unmarked)
- melting point: 107 to 111 °C

Structure (SMILES): CCOC(=O)C1=C(C)NC(c2cnc(NC(C)=O)s2)=NC1c1ccc(F)cc1Cl (centres unmarked) [Example 43, ethyl 2-(2-acetylaminothiazol-5-yl)-4-(2-chloro-4-fluorophenyl)-6-methyl-1,4-dihydro-pyrimidin-5-carboxylate]
- melting point: > 250 °C
- IC50 (HBV DNA): 2290 nM
- TD50 (HepG 2.2.15 cells): 76.43 µM

Structure (SMILES): CCOC(=O)C1=C(C)NC(c2ncc[nH]2)=NC1c1ccccc1Cl (centres unmarked)
- melting point: 121 to 125 °C

Structure (SMILES): CCOC(=O)C1=C(C)NC(c2csc(N)n2)=NC1c1ccc(F)cc1Cl (centres unmarked)
- melting point: 95 to 110 °C

Structure (SMILES): CCOC(=O)C1=C(C)NC(c2ncsc2Cl)=NC1c1ccc(F)cc1Cl (centres unmarked)
- melting point: 149 to 152 °C

Structure (SMILES): COC(=O)C1=C(C)NC(c2csc(C)n2)=NC1c1ccc(F)cc1Cl (centres unmarked) [Example 29, methyl 2-(2-methylthiazol-4-yl)-4-(2-chloro-4-fluorophenyl)-6-methyl-1,4-dihydro-pyrimidin-5-carboxylate]
- IC50 (HBV DNA): 8420 nM
- TD50 (HepG 2.2.15 cells): 56.34 µM

Structure (SMILES): CCOC(=O)C1=C(C)N(C(C)=O)C(c2cscn2)=NC1c1cccc(OC)c1 (centres unmarked)
- melting point: 130 to 131 °C

Structure (SMILES): CCOC(=O)C1=C(C)NC(c2cnc(Cl)s2)=NC1c1ccc(F)cc1Cl (centres unmarked)
- melting point: 159 to 162 °C

Structure (SMILES): CCOC(=O)C1=C(C)NC(c2cscn2)=NC1c1cccc(O)c1 (centres unmarked)
- melting point: 180 to 183 °C

Structure (SMILES): CCOC(=O)C1=C(C)N(C(C)=O)C(c2csc(C)n2)=NC1c1cccc(OC)c1 (centres unmarked)
- melting point: 114 to 116 °C

Structure (SMILES): CCOC(=O)C1=C(C)NC(c2cscn2)=NC1c1cccc(OC)c1 (centres unmarked)
- melting point: 140 to 142 °C

Structure (SMILES): CCOC(=O)C1=C(C)NC(c2cscn2)=NC1c1ccc(F)cc1 (centres unmarked)
- melting point: 118 to 120 °C

Structure (SMILES): CCOC(=O)C1=C(C)NC(c2csc(C)n2)=NC1c1ccc(O)cc1 (centres unmarked)
- melting point: 208 to 210 °C

Structure (SMILES): CCOC(=O)C1=C(C)N(C(C)=O)C(c2csc(C)n2)=NC1c1ccc(F)cc1 (centres unmarked)
- melting point: 140 to 142 °C

Structure (SMILES): CCOC(=O)C1=C(C)N(C(C)=O)C(c2csc(C)n2)=NC1c1cccc(F)c1 (centres unmarked)
- melting point: 127 to 130 °C

Structure (SMILES): COC(=O)C1=C(C)NC(c2ncsc2Cl)=NC1c1ccc(F)cc1Cl (centres unmarked)
- melting point: 98 to 100 °C

Structure (SMILES): CCOC(=O)C1=C(C)NC(c2ncc[nH]2)=NC1c1ccc(F)cc1Cl (centres unmarked)
- melting point: 157 to 162 °C

Structure (SMILES): CCOC(=O)C1=C(C)N(C(C)=O)C(c2csc(C)n2)=NC1c1ccc(Cl)cc1 (centres unmarked)
- melting point: 169 to 171 °C

Structure (SMILES): CCOC(=O)C1=C(C)NC(c2csc(C)n2)=NC1c1cccc(O)c1 (centres unmarked)
- melting point: 175 to 178 °C

Structure (SMILES): CCOC(=O)C1=C(C)NC(c2csc(C)n2)=NC1c1cccc(Cl)c1 (centres unmarked)
- melting point: 143 to 144 °C

Structure (SMILES): CCOC(=O)C1=C(C)NC(c2nccn2C)=NC1c1ccccc1Cl (centres unmarked)
- melting point: 124 to 127 °C

Structure (SMILES): CCOC(=O)C1=C(C)NC(c2c(F)cc(F)cc2F)=N[C@H]1c1ccc(F)cc1Cl [Example 62, ethyl 4-R-(2-chloro-4-fluorophenyl)-2-(2,4,6-trifluorophenyl)-6-methyl-1,4-dihydro-pyrimidin-5-carboxylate]
- IC50 (HBV DNA): 2010 nM
- TD50 (HepG 2.2.15 cells): 117.23 µM

Structure (SMILES): CCOC(=O)C1=C(C)NC(c2cscn2)=NC1c1ccccc1F (centres unmarked)
- melting point: 126 to 128 °C

Structure (SMILES): CCOC(=O)C1=C(C)NC(c2cscn2)=NC1c1cccc(C)c1 (centres unmarked)
- melting point: 133 to 134 °C

Structure (SMILES): CCOC(=O)C1=C(C)NC(c2cscn2)=NC1c1cccc(Cl)c1 (centres unmarked)
- melting point: 105 to 108 °C

Structure (SMILES): CC1=C(C(=O)OC(C)C)C(c2ccc(F)cc2Cl)N=C(c2c(F)cccc2F)N1 (centres unmarked)
- melting point: 155 to 158 °C

Structure (SMILES): COC(=O)C1=C(C)NC(c2cnc(Cl)s2)=NC1c1ccc(F)cc1 (centres unmarked)
- melting point: 175 to 178 °C
